Experimental data: patent US10638754B2, “Methods of attracting Drosophila suzukii using acetoin blend” (The United States of America, as Represented by the …, priority 2016, dated 2020)

Columns and labels:
D. suzukii [1] = assay: preliminary field test with baited traps, 2014; type: in vivo, Drosophila suzukii; conditions: for Mean ± SD (SWD captured): Oct. 17 to Oct. 24, 2014, 3 replicates; for Total no. SWD captured: Oct. 17 to Oct. 24, 2014, Beltsville, 3 replicates
Procedure: (§1) Field test: Commercially-available Victor® yellowjacket and flying insect traps (Great Lakes IPM Inc., Vestaburg, Mich.) filled with ˜300 mL of tap water containing a surfactant (Seventh Generation™ natural dish liquid—free and clear, Shoppers Food and Pharmacy, College Park, Md., 4 mL/gallon) as a drowning solution were used in all field tests at the Beltsville Agricultural Research Center-West, Beltsville, Md. (10300 Baltimore Ave., Beltsville, Md.) and at the blueberry field at Butler's Orchard (22222 Davis Mill Rd, Germantown, Md.). Unless otherwise indicated, pure chemical (individual or blend, 1 mL) was loaded onto a cotton ball held within a polypropylene flex micro-centrifuge tube (1.5 mL Eppendorf micro-centrifuge tube, VWR International, Radnor, Pa.) and the lid of the tube was then closed. Tubes filled only with a cotton ball were used as blank controls. The micro-centrifuge tube lure was opened and the lid was snapped into one of four holes on the cap of the Victor® trap, leaving the three remaining holes to serve as entrances for attracted insects. At the Beltsville Agricultural Research Center, traps were hung from the branches of trees on the edge of a small woodlot in blocks consisting of 3-5 treatments and 1 blank control with the traps spaced approximately 5 m apart within a group. The treatments were randomly arranged at different positions within the block and blocks were separated by 10-20 m. At the blueberry field in Butler's Orchard, traps were hung from the branches of blueberry bushes, deployed in blocks consisting of 3 treatments with the traps spaced approximately 5 m apart in a group. The traps were randomly arranged at different positions within the block and blocks were separated by 10-20 m.
The preliminary field tests were conducted at the Beltsville Agricultural Research Center during Oct. […] In 2015 and 2016, three additional treatments were formulated: treatment 14 ((2-components, including acetoin (AT) and ethyl octanoate (EO) in 1:1 ratio), treatment 16 (single-component, acetoin (AT)), and treatment 17 (single-component, ethyl octanoate (EO)). The rest of the compounds, including ethanol (EtOH) (10 mL) and acetic acid (AA) (1 mL), were added into drowning water and evaluated as individual attractant or synergistic attractive agent whenever needed. In 2016, ACV (300 mL, Essential Everyday®, 5% acidity, Shoppers Food and Pharmacy, College Park, Md.) and a commercially-available Scentry® SWD lure (Great Lakes IPM Inc., Vestaburg, Mich.) were used as standard lures for SWD attraction activity comparison. […] In addition, ethyl acetate (EA) (5 mL) and phenethyl alcohol (PE) (1 mL) were added to the drowning solution and evaluated as individual attractants or synergistic attractive agents. […] Flies were counted in the laboratory.

D. suzukii [2] = assay: laboratory two-choice bioassay (treatment vs. blank control); type: in vivo, Drosophila suzukii; conditions: for attraction against blank control: 20 μL standard dose, FIG. 3D, 3E; for D. suzukii that made choice: 20 μL, FIG. 3E; for attraction compared to a blank control: 50 μL total volume, N=15, FIG. 3C
Procedure: Laboratory behavioral bioassay: To identify the key components for D. suzukii attraction from the apple juice 7-components blend, a two-choice laboratory bioassay (testing chemical or chemical blend vs. blank control) was used and different combinations of 7-components were evaluated. A complete test apparatus consisted of a plastic cup containing two trap tubes with two lure vials, and a water wick (FIG. 2). The plastic cups were clear, cylindrical polypropylene food containers (946 mL, diameter 114 mm, height 127 mm, Paper Mart, CA). […] The polystyrene trap tubes (95 mm×28.5 mm, same as those used in insect rearing) were labeled “T” for treatment and “B” for blank control, respectively, and were then given the appropriate lure. Lures were either tested chemical/chemical blends (unless otherwise indicated, 20 μL pure individual or blend) loaded onto a small cotton ball held within a small polyethylene lure vial (26 mm×8 mm×1.5 mm thickness, Just Plastic Ltd., Norwich, UK) or blank controls of plain cotton or cotton with solvent (in dose response trials) held in the same type of small lure vial. Each lure vial (open lid) was placed vertically within its trap tube and then the top of each trap tube was sealed with Parafilm® (Pechiney plastics packaging Inc. Menasha, Wis.) leaving only a 4 mm diameter hole in the center to provide an entrance for attracted flies. Each pair of loaded trap tubes were then placed vertically on opposite sides of the test cups with the entrance holes facing upwards. A water wick consisting of a glass scintillation vial (20 mL, VWR, PA) filled with deionized water and plugged with a cotton ball was laid on the bottom of the plastic cup to serve as a water source for the flies during the experiment (FIG. 2). Flies were immobilized using a CO2 stream and 10 were transferred into each testing apparatus. The fully-assembled test apparatus cups were then covered with their ventilated lids. All assays were conducted in a fume hood (120-cm-length×60-cm-width×70-cm-height) using new lures and young flies (2-8 days post-eclosion) under 25° C., 60% RH, and a 16:8 hour (L:D) photoperiod. Mixed-sex D. suzukii were used in bioassays unless stated otherwise, and all flies within and outside treatment and control trap tubes were counted and sexed after 48 hours.
All statistical comparisons were considered for significance at α=0.05.

D. suzukii [3] = assay: field tests in 2015, baited traps; type: in vivo, Drosophila suzukii; conditions: for attraction of D. suzukii in the field: traps, Beltsville, late fall 2015, FIG. 4-6
Procedure: as §1
The preliminary field tests were conducted at the Beltsville Agricultural Research Center during Oct. 17 to 24, 2014, using six different lures: (1) apple juice blend (treatment 1, 7-components based on apple juice fermentation products (FIG. 1), including isobutanol (IB):2-methyl butanol (2MB):3-methyl butanol (3MB):ethyl hexanoate (EH):acetoin (AT):ethyl octanoate (EO):methyl benzoate (MB) in natural ratios of 4:7:7:0.3:1:0.3:2) (v/v)), (2) raspberry blend (11-components blend, including butyl acetate:hexanal:2-heptanone:3-methyl-butanol:trans-2-hexenal:3-methyl-2-butyl acetate:2-heptanol:hexanol:cis-3-hexenol:6-methyl-5-hepten-2-ol:linalool; obtained from Sigma-Aldrich; mixed into an 11-component blend in natural ratios of 1:36:3:5:10:2:7:8:9:2:8 (v/v), respectively))(Abraham, J. et al., Environ. Entomol., 44 (2): 356-367 (2015)), (3) single component (2-methyl butanol (2MB)), (4) 3-methyl butanol (3MB), (5) binary components blend ((2MB+3MB in 1:1 ratio)), and (6) blank control. In 2015 and 2016, three additional treatments were formulated: treatment 14 ((2-components, including acetoin (AT) and ethyl octanoate (EO) in 1:1 ratio), treatment 16 (single-component, acetoin (AT)), and treatment 17 (single-component, ethyl octanoate (EO)). The rest of the compounds, including ethanol (EtOH) (10 mL) and acetic acid (AA) (1 mL), were added into drowning water and evaluated as individual attractant or synergistic attractive agent whenever needed. In 2016, ACV (300 mL, Essential Everyday®, 5% acidity, Shoppers Food and Pharmacy, College Park, Md.) and a commercially-available Scentry® SWD lure (Great Lakes IPM Inc., Vestaburg, Mich.) were used as standard lures for SWD attraction activity comparison. The amount of AA in the drowning solution in each trap was increased from 1 mL to 15 mL to reach the same acidity (5%) with ACV. In addition, ethyl acetate (EA) (5 mL) and phenethyl alcohol (PE) (1 mL) were added to the drowning solution and evaluated as individual attractants or synergistic attractive agents. Lure dispenser tubes and trap drowning solutions with captured insects were collected and replaced every week unless otherwise indicated. Flies were counted in the laboratory.

[4] = lure release rate from micro-centrifuge tube dispensers; type: physicochemical; conditions: for first order rate constant k of desorption: 1 mL loading, micro-centrifuge tube dispenser, fume hood
Procedure: Lure Release Rate: Release rates of three different kinds of attractants, including acetoin (AT), ethyl octanoate (EO), and a blend of AT and EO (ratio=1:1), were measured under controlled conditions in a laboratory fume hood. Each attractant (1 mL) was loaded onto cotton balls held in open micro-centrifuge tubes (1.5 mL, VWR International, Radnor, Pa.). Fifteen of these micro-centrifuge tubes (five of each tested attractant) were suspended on hooks in a fume hood (temperature: 20-25° C., face velocity: 129 feet/min). Each tube was weighed every 24-h or 72-h (weekend) and the amount of attractant residue was calculated and recorded over a period of two weeks.

D. suzukii [5] = assay: field tests in 2016, baited traps; type: in vivo, Drosophila suzukii; conditions: Nov.-Dec. 2016, FIG. 7-11
Procedure: (§2) Field test: Commercially-available Victor® yellowjacket and flying insect traps (Great Lakes IPM Inc., Vestaburg, Mich.) filled with ˜300 mL of tap water containing a surfactant (Seventh Generation™ natural dish liquid—free and clear, Shoppers Food and Pharmacy, College Park, Md., 4 mL/gallon) as a drowning solution were used in all field tests at the Beltsville Agricultural Research Center-West, Beltsville, Md. (10300 Baltimore Ave., Beltsville, Md.) and at the blueberry field at Butler's Orchard (22222 Davis Mill Rd, Germantown, Md.). […]
(§3) The preliminary field tests were conducted at the Beltsville Agricultural Research Center during Oct. […] In 2015 and 2016, three additional treatments were formulated: treatment 14 ((2-components, including acetoin (AT) and ethyl octanoate (EO) in 1:1 ratio), treatment 16 (single-component, acetoin (AT)), and treatment 17 (single-component, ethyl octanoate (EO)). The rest of the compounds, including ethanol (EtOH) (10 mL) and acetic acid (AA) (1 mL), were added into drowning water and evaluated as individual attractant or synergistic attractive agent whenever needed. In 2016, ACV (300 mL, Essential Everyday®, 5% acidity, Shoppers Food and Pharmacy, College Park, Md.) and a commercially-available Scentry® SWD lure (Great Lakes IPM Inc., Vestaburg, Mich.) were used as standard lures for SWD attraction activity comparison. […]

other D. spp. = assay: field tests in 2015, baited traps, non-target catch; type: in vivo; conditions: EtOH combined with the AT+AA blend; field 2015; FIG. 4
Procedure: as §2, §3

## CCC(C)CO (stereo not shown) [2MB, 2-methyl-1-butanol]
D. suzukii [1]
  Mean ± SD (SWD captured): 1.00 ± 1.00c
  Total no. SWD captured: 3
D. suzukii [2]; 48 h
  attraction against blank control: repellent effect
  D. suzukii that made choice: 37%

## CC(C)CCO [3MB, 3-methyl-1-butanol]
D. suzukii [1]
  Mean ± SD (SWD captured): 3.00 ± 1.00c
  Total no. SWD captured: 9

## CC(=O)O [AA, acetic acid]
D. suzukii [3]
  attraction of D. suzukii in the field: inactive by itself
D. suzukii [2]
  attraction compared to a blank control: not attractive

## CC(=O)C(C)O (stereo not shown) [AT, 3-hydroxy-2-butanone]
[4]
  time to release 50% (half-life of dispenser, t1/2=0.693/k): ~48 h
  first order rate constant k of desorption: 0.316 day⁻¹
D. suzukii [3]
  attraction of D. suzukii in the field: significantly more attractive than EO
D. suzukii [2]; 48 h
  attraction against blank control: elicited attraction
D. suzukii [2]; 48 h, listed as Acetoin
  attraction against blank control: moderate activity

## CCOC(C)=O [EA, ethyl acetate]
D. suzukii [5]
  attraction of D. suzukii in the field: not attractive in the field

## CCCCCCCC(=O)OCC [EO, ethyl octanoate]
[4]
  first order rate constant k of desorption: 0.049 day⁻¹
D. suzukii [3]; field 2015
  synergistic effect when combined with AA: No synergistic effect
D. suzukii [3]
  attraction of D. suzukii in the field: did not show any activity at all
D. suzukii [2]; 48 h
  attraction against blank control: most attractive component
  D. suzukii that made choice: 96%
D. suzukii [2]; 50 μL loading, 5 replicates of 10 flies, 48 h
  Mean ± SD (D. suzukii captured in tubes): 9.80 ± 0.45a
D. suzukii [2]; 50 μL loading, 5 replicates, 50 flies tested in total, 48 h
  Total no. captured: 49
D. suzukii [2]; 50 μL loading, N=5
  effectiveness compared with other treatments: captured significantly more D. suzukii than trap vials baited with treatment 1
D. suzukii [2]; all doses from 0.3 μL to 300 μL, FIG. 3F
  attraction against blank control, dose response: Significantly attractive activities

## CCO [EtOH, ethanol, reference compound]
D. suzukii [3]; ethanol added to blend of AT and AA
  SWD specificity of the blend: ~30%
D. suzukii [3]
  attraction of D. suzukii in the field: did not show significant activity
Other D. spp.
  trap catch of non-target Drosophila: attracted significantly more non-target Drosophila
D. suzukii [2]
  attraction compared to a blank control: significantly more attractive

## OCCc1ccccc1 [PE, phenethyl alcohol]
D. suzukii [5]
  attraction of D. suzukii in the field: did not show any activity
